The values that follow come from patent US12173088B2, “Anti-microbial peptides” (priority 2018, dated 2024).

Data set [1] has as its system P. aeruginosa PAO1. It is filed as cell-based, Pseudomonas aeruginosa. Particulars: PAO1. The method in brief:
(§1)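 Broth microdilution in tryptic soy broth: log-phase cultures (OD600 ≈0.5) diluted to OD600 0.001, given two-fold peptide dilutions, incubated overnight at 37° C. Growth read at 630 nm.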

Data set [2] relates to S. aureus USA300 biofilms. The note with it: 25 μM; 24 hour formed static biofilms.
Protocol: The antibiofilm activity of the peptide against 24 hours established biofilms was evaluated. In short, S. aureus USA300 (10^5 CFU/mL) was made from exponential phase bacteria in TSB media and 200 μL was distributed to each well of the microtiter plate (Corning Costar Cat No. 3595). The plates were incubated at 37° C. for 24 hours to form biofilm. Culture treated with water served as a positive control while media without bacterial inoculation served as the negative control. Media was then pipetted out and the attached biofilms were washed with 1×PBS to remove the planktonic bacteria. Each well of the plate was then filled with 20 μL of 10× peptide solution and 180 μL of fresh TSB media and the plates were further incubated at 37° C. for 24 hours. Media was then pipetted out and the wells were washed with 1×PBS to remove planktonic cells. Live cells in the biofilms were then quantitated using XTT [2,3-bis(2-methyloxy-4-nitro-5-sulfophenyl)-2H-tertazolium-5-carboxanilide] assay by following the manufacturer's instructions with modifications. 180 μL of fresh TSB and 20 μL of XTT solution was added to each well and the plates were again incubated at 37° C. for 2 hours. Absorbance at 450 nm (only media with XTT containing wells served as the blank) was obtained using a ChroMate® microtiter plate reader. […]
Data set [3] deals with E. coli ATCC 25922. Type of data set: cell-based, Escherichia coli. Particulars: ATCC 25922. The method in brief:
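Peptides, serially diluted two-fold, were incubated overnight at 37 °C with E. coli ATCC 25922 from log-phase cultures adjusted to OD600 0.001. Turbidity at 630 nm served as the read-out in this broth microdilution format.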

The test system of data set [4] is E. coli ampC E416-7. Type of data set: cell-based, Escherichia coli. The note with it: Table 7. The essentials:
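Broth microdilution in tryptic soy broth: log-phase E. coli E416-17 (ampC) diluted to OD600 0.001 and exposed to two-fold peptide dilutions. Incubated overnight at 37° C; growth read at 630 nm.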

Data set [5] can be described thus: Toxicity to cells. Type of data set: cell-based. The note with it: human, MRC9 human lung fibroblasts; read-out: LC50 (the source's name).
For data set [6], the system named is S. aureus ΔmprF mutant. Particulars: Table 17; strain ΔmprF. Here is the method: (§2) The antibacterial activity of peptides was evaluated using a standard broth microdilution protocol with minor modifications (Mishra, et al. (2017) Acta Biomater., 49:316-328). In brief, logarithmic phase bacterial cultures (i.e., optical density at 600 nm≈0.5) were diluted to 0.001 OD and aliquoted 90 μL per well into a 96-well polystyrene microplate. Added 10 μL peptides per well with various concentrations, plates were incubated at 37° C., overnight. Post incubation the plates are read at 630 nm using a ChroMate® Microplate Reader (GMI). […] To study the influence of medium conditions on the antimicrobial activity of peptides against S. aureus USA300 at different pHs (6.8, 7.2, and 8.0), 150 mM sodium chloride (NaCl), 5-10% of human serum, mouse plasma, and peritoneal fluid were included into the assays.

The test system of data set [7] is S. aureus JE2 (wild type). Here is the method: as §2
The nature of data set [8]: Stability in mouse plasma and peritoneal fluid. It is filed as in vitro ADME. Particulars: murine peritoneal fluids or plasma for 3 hours. The protocol:
Stability of horine and verine was evaluated in the presence of mouse plasma and peritoneal fluid using SDS-PAGE electrophoresis. […] […] The gels were stained using the Coomassie Brilliant Blue G-250 dye.

Data set [9] relates to K. pneumoniae ATCC 13883. It is filed as cell-based, Klebsiella pneumoniae. Particulars: ATCC 13883. The method in brief:
as §1

The test system of data set [10] is human red blood cells (hRBCs). Put plainly: Hemolytic assay. Type of data set: cell-based. The essentials: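 HL50 marks the peptide level lysing half of a 2% (v/v) suspension of washed human erythrocytes after 1 h at 37 °C. Released hemoglobin measured at 545 nm, scaled between PBS (0%) and Triton X-100 (2% or 1%; 100%). Selectivity index computed as HL50 over MIC.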

The nature of data set [11]: in vivo. The protocol:
The efficacy of the two peptides was also investigated in non-neutropenic mice against S. aureus USA300. A higher bacterial inoculum at 2×10^8 CFU per mouse was used. […] To evaluate the peptide pharmacokinetics (Chhonker, et al. (2018) Biomed. Chromatogr. e4389), the plasma clearance rate of horine after intravenous injection of 10 mg/kg into BALB/c mice was followed.

Data set [12] can be described thus: Liver microsomal assay. It is filed as in vitro ADME. The note with it: in one hour. (In general: Liver microsomes are vesicles of endoplasmic reticulum, rich in cytochrome P450 enzymes.)
The test system of data set [13] is Klebsiella pneumoniae clinical strains. Briefly: microbe, parasite or virus in culture. Particulars: clinical strains.

≈ marks a conversion by molar mass, not a printed value. Where two headings read alike, the source gives them in different places. Peptide text beside a SMILES is read from it.

Consider `CC(C)C[C@H](NC(=O)[C@H](CC(C)C)NC(=O)[C@H](CCCCN)NC(=O)[C@H](CC(C)C)NC(=O)CNC(=O)[C@H](CC(C)C)NC(=O)[C@H](CO)NC(=O)[C@H](CC(C)C)NC(=O)[C@H](CC(C)C)NC(=O)[C@H](CC(C)C)NC(=O)[C@H](CCCCN)NC(=O)[C@H](CC(C)C)NC(=O)CN)C(N)=O` [DFT561, GLKLLLSLGLKLL] (H-GLKLLLSLGLKLL-NH2; N-terminus and C-terminus assumed), for which the “MIC PA (P. aeruginosa PAO1)” value in [1] was above 25 µM. In addition, in [2], the “S. aureus killed in biofilms” value amounted to 60%. Moreover, the “MIC EC (E. coli ATCC 25922)” value in data set [3] was above 25 µM. In data set [4], the “MIC E. coli ampC E416-7” value was above 50 µM.

As for `CC(C)C[C@H](NC(=O)[C@H](Cc1c[nH]c2ccccc12)NC(=O)[C@H](Cc1c[nH]c2ccccc12)NC(=O)[C@@H](N)Cc1c[nH]c2ccccc12)C(=O)N[C@@H](CCCNC(=N)N)C(=O)N[C@@H](CCCNC(=N)N)C(=O)N[C@@H](CCCNC(=N)N)C(=O)N[C@@H](Cc1c[nH]c2ccccc12)C(N)=O` [Horine, WWWLRRRW] (H-WWWLRRRW-NH2; N-terminus and C-terminus assumed), in [5], the CC50 was above 35 µM. Further, the MIC was 2 µM (≈ 2.69 µg/mL) in data set [6], 4 µM (≈ 5.37 µg/mL) in data set [7] (JE2 (wild type)) and above 64 µM in [13]. Besides, the Stability after incubation entry in [8] was “stable and active”. Further, the “MIC K. pneumonia ATCC 13883” value in data set [9] was above 25 µM. In [10], this molecule came in with an HL50 of 150 µM. Further, the “MIC P. aeruginosa PAO1” value in data set [1] stood at 12.5 µM (≈ 16.8 µg/mL). The “Time to become undetectable in plasma” value in [11] (10 mg/kg i.v.) is at most 1 h. In data set [11] (BALB/c, mouse, plasma, iv, 10 mg/kg), the level at 5 min came out at 266 ng/mL. Besides, in [12], the “Degradation in liver microsomal assay” value is listed as 5000.

In the case of `CC(C)[C@H](NC(=O)[C@H](Cc1c[nH]c2ccccc12)NC(=O)[C@H](Cc1c[nH]c2ccccc12)NC(=O)[C@H](Cc1c[nH]c2ccccc12)NC(=O)[C@H](Cc1c[nH]c2ccccc12)NC(=O)[C@H](CCCNC(=N)N)NC(=O)[C@H](CCCNC(=N)N)NC(=O)[C@@H](N)CCCNC(=N)N)C(N)=O` [Verine, RRRWWWWV] (H-RRRWWWWV-NH2; N-terminus and C-terminus assumed), the CC50 in [5] is above 25 µM. Moreover, the MIC in data set [6] worked out at 2 µM (≈ 2.66 µg/mL); in data set [7] (Table 17, strain JE2), 4 µM (≈ 5.32 µg/mL). In data set [8], the Stability after incubation result is “stable and active”. Also, the HL50 in data set [10] (Table 12) was 130^2 μM. Also, in [12], the “Degradation in liver microsomal assay” value is 5000.
